Experimental data as given in the Kinase Knowledgebase extract (Sharma et al. 2016).

Target: MAPK14 (human) (UniProt Q16539)
Assay: Inhibition of MAPK14 Kinase Activity

Sequence of MAPK14 (human) (Q16539 whole entry, looked up): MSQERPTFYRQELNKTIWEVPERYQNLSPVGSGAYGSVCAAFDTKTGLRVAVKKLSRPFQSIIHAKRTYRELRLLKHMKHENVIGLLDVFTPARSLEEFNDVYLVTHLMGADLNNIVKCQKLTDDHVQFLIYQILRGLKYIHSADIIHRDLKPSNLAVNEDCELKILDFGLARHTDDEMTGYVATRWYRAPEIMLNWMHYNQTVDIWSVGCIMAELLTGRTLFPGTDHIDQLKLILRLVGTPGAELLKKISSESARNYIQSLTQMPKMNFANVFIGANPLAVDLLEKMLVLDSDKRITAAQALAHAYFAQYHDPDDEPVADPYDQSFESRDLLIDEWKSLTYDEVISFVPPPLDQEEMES

Compound	IC50 [µM]
O=C(Cc1ccccc1)Nc1ccc(Cl)c(N2CC(Sc3ccc(F)cc3F)CCC2=O)c1Cl (stereo unspecified)	≤ 10
COc1ccc(OC2CCC(=O)N(C3C(Cl)CCCC3Cl)C2)cc1 (stereo unspecified)	≤ 10
O=C1CCC(Cc2ccc(F)cc2F)CN1c1c(Cl)cc(N2CCNCC2)cc1Cl (stereo unspecified)	≤ 10
CC1(C)NC(=O)N(CCNc2cc(Cl)c(N3CC(Cc4ccc(F)cc4F)CCC3=O)c(Cl)c2)C1=O (stereo unspecified)	≤ 10
O=C1CCC(Oc2ccc(F)cc2F)CN1c1c(Cl)ncc(CO)c1Cl (stereo unspecified)	≤ 10
O=C1SCC(Cc2ccccc2Cl)CN1c1c(Cl)cccc1Cl (stereo unspecified)	≤ 10
CNc1cc(Cl)c(N2CC(Cc3ccc(F)cc3F)CCC2=O)c(Cl)c1 (stereo unspecified)	≤ 10
O=C1CCC(Sc2ccccc2F)CN1c1c(Cl)cccc1Cl (stereo unspecified)	≤ 10
Cc1ccc(CC2CSC(=O)N(c3c(Cl)cccc3Cl)C2)cc1 (stereo unspecified)	≤ 10
Cc1cccc(C)c1N1C[C@@H](N(CCO)S(=O)(=O)c2ccc(F)cc2F)CCC1=O	≤ 10
Cc1ccc(CC2CNC(=O)N(c3c(Cl)cccc3Cl)C2)cc1 (stereo unspecified)	≤ 10
O=C1CCC(Cc2ccccc2F)CN1c1c(Cl)ccnc1Cl (stereo unspecified)	≤ 10
Cc1cc(CCCCCO)cc(C)c1N1CC(Cc2ccc(F)cc2F)CCC1=O (stereo unspecified)	≤ 10
NC(=O)CNc1cc(Cl)c(N2CC(Cc3ccc(F)cc3F)CCC2=O)c(Cl)c1 (stereo unspecified)	≤ 10
O=C1CCC(Oc2ccc3ccccc3c2)CN1C1C(Cl)CCCC1Cl (stereo unspecified)	≤ 10
Cc1ccccc1CC1CN(C)C(=O)N(c2c(Cl)cccc2Cl)C1 (stereo unspecified)	≤ 10
CNc1cc(Cl)c(N2CC(Cc3ccc(F)cc3F)CSC2=O)c(Cl)c1 (stereo unspecified)	≤ 10
COc1ccccc1SC1CCC(=O)N(c2c(Cl)csc2Cl)C1 (stereo unspecified)	≤ 10
Cc1cc(C#CCCO)cc(C)c1N1CC(Cc2ccc(F)cc2F)CCC1=O (stereo unspecified)	≤ 10
CC(=O)Nc1cc(Cl)c(N2CC(Cc3ccc(F)cc3F)OCC2=O)c(Cl)c1 (stereo unspecified)	≤ 10
O=C1CCC(Oc2ccc(Cl)cc2Cl)CN1c1c(Cl)ccnc1Cl (stereo unspecified)	≤ 10
O=C1CCC(Oc2ccc(Cl)cc2)CN1c1c(Cl)cncc1Cl (stereo unspecified)	≤ 10
CC(=O)Nc1sc(Cl)c(N2CC(Oc3ccc(F)cc3F)CCC2=O)c1Cl (stereo unspecified)	≤ 10

Compound	IC50 [µM]
COC(=O)c1ccccc1CC1CCC(=O)N(c2c(C)cccc2C)C1 (stereo unspecified)	≤ 10
Cc1cc(C)cc(CC2CSC(=O)N(c3c(Cl)cccc3Cl)C2)c1 (stereo unspecified)	≤ 10
O=C(Cc1ccccc1)Nc1ccc(Cl)c(N2CC(Cc3ccc(F)cc3F)OCC2=O)c1Cl (stereo unspecified)	≤ 10
O=C1CCC(Sc2ccc(F)cc2F)CN1c1c(Cl)cc(CO)nc1Cl (stereo unspecified)	≤ 10
Cc1cc(C(=O)NCCC(=O)O)cc(C)c1N1CC(Cc2ccc(F)cc2F)CCC1=O (stereo unspecified)	≤ 10
O=C1CCC(Cc2cc(Cl)cc(Cl)c2)CN1C1C(Cl)CCCC1Cl (stereo unspecified)	≤ 10
O=C1CCC(Oc2ccc(F)cc2F)CN1C1C(Cl)CCC(O)C1Cl (stereo unspecified)	≤ 10
CC(=O)Nc1cnc(Cl)c(N2CC(Sc3ccc(F)cc3F)CCC2=O)c1Cl (stereo unspecified)	≤ 10
O=C1CCC(Sc2ccc(Cl)cc2)CN1c1c(Cl)ccnc1Cl (stereo unspecified)	≤ 10
O=C1CCC(Oc2cccc3ccccc23)CN1c1c(Cl)ccnc1Cl (stereo unspecified)	≤ 10
O=C1CCC(Sc2ccc(F)cc2F)CN1C1C(Cl)CCC(CO)C1Cl (stereo unspecified)	≤ 10
O=C1CCC(Cc2ccc(F)cc2F)CN1c1c(Cl)ccnc1Cl (stereo unspecified)	≤ 10
CC(=O)NC1CCC(Cl)C(N2CC(Oc3ccc(F)cc3F)CCC2=O)C1Cl (stereo unspecified)	≤ 10
COc1ccc(SC2CCC(=O)N(C3C(Cl)CCCC3Cl)C2)cc1 (stereo unspecified)	≤ 10
CN(C)CCNC(=O)c1cc(Cl)c(N2CC(Cc3ccc(F)cc3F)CCC2=O)c(Cl)c1 (stereo unspecified)	≤ 10
Cc1ccc(CC2CNC(=O)N(c3c(Cl)cccc3Cl)C2)c(C)c1 (stereo unspecified)	≤ 10
Cc1cc(C)cc(OC2CCC(=O)N(c3c(Cl)ccnc3Cl)C2)c1 (stereo unspecified)	≤ 10
CC(C)(C)OC(=O)N(Cc1ccccn1)c1cc(Cl)c(N2CC(Cc3ccc(F)cc3F)CCC2=O)c(Cl)c1 (stereo unspecified)	≤ 10
Cc1ccc(CC2CCC(=O)N(c3c(Cl)cncc3Cl)C2)c(C)c1 (stereo unspecified)	≤ 10
O=C(Cc1ccccc1)NC1CCC(Cl)C(N2CC(Oc3ccc(F)cc3F)CCC2=O)C1Cl (stereo unspecified)	≤ 10
Cc1cc(C)cc(SC2CCC(=O)N(c3c(Cl)ccnc3Cl)C2)c1 (stereo unspecified)	≤ 10
O=C1CCC(Oc2ccc(F)cc2)CN1C1C(Cl)CCCC1Cl (stereo unspecified)	≤ 10
O=C1COC(Cc2ccc(F)cc2F)CN1c1c(Cl)cc(CO)cc1Cl (stereo unspecified)	≤ 10

Compound	IC50 [µM]
CC(=O)N1CCC(Nc2cc(Cl)c(N3CC(Cc4ccc(F)cc4F)CCC3=O)c(Cl)c2)CC1 (stereo unspecified)	≤ 10
COc1ccc(CC2CCC(=O)N(c3c(Cl)cncc3Cl)C2)cc1 (stereo unspecified)	≤ 10
O=C1CCC(Cc2ccc(F)cc2F)CN1c1c(Cl)cnc(O)c1Cl (stereo unspecified)	≤ 10
CC[C@@H]1C[C@@H](Cc2ccc(F)cc2F)CN(c2c(Cl)cccc2Cl)C1=O	≤ 10
COc1ccc(SC2CCC(=O)N(c3c(Cl)csc3Cl)C2)cc1 (stereo unspecified)	≤ 10
NCc1ccccc1CC1CCC(=O)N(c2c(Cl)cccc2Cl)C1 (stereo unspecified)	≤ 10
O=C(Cc1ccccc1)Nc1ccc(Cl)c(N2CC(Cc3ccc(F)cc3F)CNC2=O)c1Cl (stereo unspecified)	≤ 10
O=C1CCC(Oc2cccc3ccccc23)CN1c1c(Cl)cncc1Cl (stereo unspecified)	≤ 10
Cc1ccc(OC2CCC(=O)N(C3C(Cl)CCCC3Cl)C2)c(C)c1 (stereo unspecified)	≤ 10
CCOC(=O)CNc1cc(Cl)c(N2CC(Cc3ccc(F)cc3F)CCC2=O)c(Cl)c1 (stereo unspecified)	≤ 10
O=C1OCC(Cc2ccccc2F)CN1c1c(Cl)cccc1Cl (stereo unspecified)	≤ 10
CNC(=O)CNc1cc(Cl)c(N2CC(Cc3ccc(F)cc3F)CCC2=O)c(Cl)c1 (stereo unspecified)	≤ 10
Cc1cc(C)cc(CC2COC(=O)N(c3c(Cl)cccc3Cl)C2)c1 (stereo unspecified)	≤ 10
CNc1sc(Cl)c(N2CC(Sc3ccc(F)cc3F)CCC2=O)c1Cl (stereo unspecified)	≤ 10
O=C1CCC(Sc2ccc(F)cc2F)CN1c1c(Cl)ncc(CO)c1Cl (stereo unspecified)	≤ 10
O=C1CCC(Cc2ccc(F)cc2F)CN1C1C(Cl)CCC(CO)C1Cl (stereo unspecified)	≤ 10
NC1CC(Cl)C(N2CC(Sc3ccc(F)cc3F)CCC2=O)C(Cl)C1 (stereo unspecified)	≤ 10
O=C1CCC(Oc2ccccc2F)CN1c1c(Cl)ccnc1Cl (stereo unspecified)	≤ 10
O=C1COC(Cc2cccc3ccccc23)CN1c1c(Cl)cccc1Cl (stereo unspecified)	≤ 10
CC(=O)Nc1cc(Cl)c(N2CC(Oc3ccc(F)cc3F)CCC2=O)c(Cl)c1 (stereo unspecified)	≤ 10
COc1ccc(CC2CCC(=O)N(c3c(Cl)ccnc3Cl)C2)cc1 (stereo unspecified)	≤ 10
O=C1SCC(Cc2ccc(F)cc2F)CN1c1c(Cl)cc(CO)cc1Cl (stereo unspecified)	≤ 10
COC(=O)c1cc(C)c(N2C[C@@H](Cc3ccc(F)cc3F)C[C@@H](C)C2=O)c(C)c1	≤ 10

Compound	IC50 [µM]
Cc1ccccc1CC1CN(c2c(Cl)cccc2Cl)C(=O)CO1 (stereo unspecified)	≤ 10
O=C1CCC(Cc2cccc3ccccc23)CN1C1C(Cl)CCCC1Cl (stereo unspecified)	≤ 10
COC(=O)Nc1cc(Cl)c(N2CC(Cc3ccc(F)cc3F)CCC2=O)c(Cl)c1 (stereo unspecified)	≤ 10
O=C(CNc1cc(Cl)c(N2CC(Cc3ccc(F)cc3F)CCC2=O)c(Cl)c1)NOCc1ccccc1 (stereo unspecified)	≤ 10
CC(=O)Nc1cc(Cl)c(N2CC(Cc3ccc(F)cc3F)CCC2=O)c(Cl)c1 (stereo unspecified)	≤ 10
Cc1cc(C)cc(CC2CCC(=O)N(c3c(Cl)ccnc3Cl)C2)c1 (stereo unspecified)	≤ 10
O=C1CCC(Cc2ccc(F)cc2)CN1C1C(Cl)CCCC1Cl (stereo unspecified)	≤ 10
O=C(Cc1ccccc1)Nc1cc(Cl)c(N2CC(Cc3ccc(F)cc3F)CNC2=O)c(Cl)c1 (stereo unspecified)	≤ 10
CNc1ccc(Cl)c(N2CC(Cc3ccc(F)cc3F)CSC2=O)c1Cl (stereo unspecified)	≤ 10
CNC1CCC(Cl)C(N2CC(Sc3ccc(F)cc3F)CCC2=O)C1Cl (stereo unspecified)	≤ 10
O=C1CSC(Cc2ccccc2F)CN1c1c(Cl)cccc1Cl (stereo unspecified)	≤ 10
O=C1CCC(Oc2ccccc2)CN1c1c(Cl)cccc1Cl (stereo unspecified)	≤ 10
COC(c1ccc(F)cc1F)C1CCC(=O)N(c2c(Cl)cccc2Cl)C1 (stereo unspecified)	≤ 10
Cc1cc(C(=O)O)cc(C)c1N1CC(Cc2ccc(F)cc2F)CCC1=O (stereo unspecified)	≤ 10
O=C1CCC(Oc2ccc(F)cc2F)CN1c1c(Cl)ccc(O)c1Cl (stereo unspecified)	≤ 10
CCOC(=O)CCCNC(=O)c1cc(C)c(N2CC(Cc3ccc(F)cc3F)CCC2=O)c(C)c1 (stereo unspecified)	≤ 10
O=C1CCC(Oc2ccc(F)cc2)CN1c1c(Cl)csc1Cl (stereo unspecified)	≤ 10
O=C1CCC(Cc2ccc(F)cc2F)CN1C1C(Cl)CCC(O)C1Cl (stereo unspecified)	≤ 10
O=C(Cc1ccccc1)Nc1cc(Cl)c(N2CC(Oc3ccc(F)cc3F)CCC2=O)c(Cl)n1 (stereo unspecified)	≤ 10
O=C1SCC(Cc2ccc(Cl)cc2)CN1c1c(Cl)cccc1Cl (stereo unspecified)	≤ 10
NC(=O)C[C@H](N)C(=O)Nc1cc(Cl)c(N2CC(Cc3ccc(F)cc3F)CCC2=O)c(Cl)c1 (stereo partly specified)	≤ 10
O=C(NCc1ccccc1)NCc1ccccc1CC1CCC(=O)N(c2c(Cl)cccc2Cl)C1 (stereo unspecified)	≤ 10
O=C1CCC(Cc2ccc(Cl)cc2)CN1c1c(Cl)csc1Cl (stereo unspecified)	≤ 10

Compound	IC50 [µM]
CCOC(=O)COc1ccccc1CC1CCC(=O)N(c2c(C)cccc2C)C1 (stereo unspecified)	≤ 10
O=C1CCC(Oc2ccc(F)cc2F)CN1c1c(Cl)sc(CO)c1Cl (stereo unspecified)	≤ 10
O=C1NCC(Cc2ccc(F)cc2F)CN1c1c(Cl)cccc1Cl (stereo unspecified)	≤ 10
CNc1cc(Cl)c(N2CC(Sc3ccc(F)cc3F)CCC2=O)c(Cl)c1 (stereo unspecified)	≤ 10
Cc1ccc(OC2CCC(=O)N(c3c(Cl)cccc3Cl)C2)cc1 (stereo unspecified)	≤ 10
Cc1cccc(NC(=O)NCc2ccccc2CC2CCC(=O)N(c3c(Cl)cccc3Cl)C2)c1 (stereo unspecified)	≤ 10
O=C1OCC(Cc2ccc(F)cc2F)CN1c1c(Cl)ccc(O)c1Cl (stereo unspecified)	≤ 10
CC(=O)Nc1cc(Cl)c(N2CC(Oc3ccc(F)cc3F)CCC2=O)c(Cl)n1 (stereo unspecified)	≤ 10
O=C1CCC(Sc2ccc(F)cc2)CN1c1c(Cl)cccc1Cl (stereo unspecified)	≤ 10
O=C1CCC(Cc2ccc(F)cc2F)CN1c1c(Cl)cc(NCc2ccccn2)cc1Cl (stereo unspecified)	≤ 10
O=C(NCc1ccccc1CC1CCC(=O)N(c2c(Cl)cccc2Cl)C1)Nc1ccccc1 (stereo unspecified)	≤ 10
O=C1CCC(Sc2ccc(Cl)cc2Cl)CN1c1c(Cl)ccnc1Cl (stereo unspecified)	≤ 10
O=C(c1ccc(F)cc1F)C1CCC(=O)N(c2c(Cl)cccc2Cl)C1 (stereo unspecified)	≤ 10
O=C1CCC(Cc2ccc(Cl)cc2)CN1c1c(Cl)cccc1Cl (stereo unspecified)	≤ 10
Nc1ccc(Cl)c(N2CC(Cc3ccc(F)cc3F)CCC2=O)c1Cl (stereo unspecified)	≤ 10
CC(=O)Nc1ccc(CC2CCC(=O)N(c3c(Cl)cccc3Cl)C2)cc1 (stereo unspecified)	≤ 10
O=C(Cc1ccccc1)Nc1cnc(Cl)c(N2CC(Sc3ccc(F)cc3F)CCC2=O)c1Cl (stereo unspecified)	≤ 10
O=C1NCC(Cc2cccc3ccccc23)CN1c1c(Cl)cccc1Cl (stereo unspecified)	≤ 10
O=C1CCC(Cc2ccc(F)cc2F)CN1c1c(Cl)cc(N2C(=O)CCC2=O)cc1Cl (stereo unspecified)	≤ 10
